Data: patent publication US20240350538A1, “Use of an arsenic compound for treating a short or long cytokine storm in various autoimmune/inflammatory diseases in humans or animals” (priority 2020, published 2024)

Test system: fresh human Peripheral Blood Mononuclear Cells (hPBMCs)
Test: Cytokine production (IFNα, IL-6, IL-1β) by hPBMCs in basal condition and after TLR-9 stimulation (ODN2216)
Assay type: cell-based
Conditions: TLR-9-stimulated hPBMCs, 24 h; PD0325901 1 μM + ATO 2.5 μM

O=C(NOC[C@H](O)CO)c1ccc(F)c(F)c1Nc1ccc(I)cc1F [PD0325901]
production of IFNα after inhibition by ATO: did not restore
